From US7534782B2, “Crystal of 1-methylcarbapenem solvate” (Sankyo Company, Limited, priority 2003, dated 2009)
Where two headings read alike, the source gives them in different places.

Key:
[1] = storage stability of the crystalline forms; assay type: physicochemical
[2] = system: Gram-negative bacterial strains and Gram-positive bacterial strains; settings: cited from earlier work

For `C[C@@H](O)[C@H]1C(=O)N2C(C(=O)O)=C(S[C@H]3C[C@@H](C(=O)N4CC[C@H](NC(=O)CNC(=N)N)C4)N(C)C3)[C@H](C)[C@H]12` [Crystalline form (I-2), (1R,5S,6S)-2-[(2S,4S)-2-[(3S)-3-(2-Guanidinoacetylamino)pyrrolidin-1-ylcarbonyl]-1-methylpyrrolidin-4-ylthio]-6-[(1R)-1-hydroxyethyl]-1-methyl-1-carbapen-2-em-3-carboxylic acid tetrahydrate], the “stability during storage under conditions of normal or high humidity” value [1] was “stable during storage”.
In the case of `C[C@@H](O)[C@H]1C(=O)N2C(C(=O)O)=C(S[C@H]3C[C@@H](C(=O)N4CC[C@H](NC(=O)CNC(=N)N)C4)N(C)C3)[C@H](C)[C@H]12` [compound (I), (1R,5S,6S)-2-[(2S,4S)-2-[(3S)-3-(2-guanidinoacetylamino)pyrrolidin-1-ylcarbonyl]-1-methylpyrrolidin-4-ylthio]-6-[(1R)-1-hydroxyethyl]-1-methyl-1-carbapen-2-em-3-carboxylic acid], the antibiotic activity [2] is given as “excellent antibiotic activity” and the antibiotic activity ([2]; listed as 1-methylcarbapenem compound of formula (I)) is given as “potent antibiotic activity”.
With `C[C@@H](O)[C@H]1C(=O)N2C(C(=O)O)=C(S[C@H]3C[C@@H](C(=O)N4CC[C@H](NC(=O)CNC(=N)N)C4)N(C)C3)[C@H](C)[C@H]12` [Crystalline form (I-3), (1R,5S,6S)-2-[(2S,4S)-2-[(3S)-3-(2-Guanidinoacetylamino)pyrrolidin-1-ylcarbonyl]-1-methylpyrrolidin-4-ylthio]-6-[(1R)-1-hydroxyethyl]-1-methyl-1-carbapen-2-em-3-carboxylic acid ethanolate trihydrate] the “stability during storage under conditions of normal or high humidity” value ([1]; trihydrate) was “remains stable during storage”.
With `C[C@@H](O)[C@H]1C(=O)N2C(C(=O)O)=C(S[C@H]3C[C@@H](C(=O)N4CC[C@H](NC(=O)CNC(=N)N)C4)N(C)C3)[C@H](C)[C@H]12` [Crystalline form (I-1), (1R,5S,6S)-2-[(2S,4S)-2-[(3S)-3-(2-Guanidinoacetylamino)pyrrolidin-1-ylcarbonyl]-1-methylpyrrolidin-4-ylthio]-6-[(1R)-1-hydroxyethyl]-1-methyl-1-carbapen-2-em-3-carboxylic acid ethanolate] the “storage stability under dry conditions” value ([1]; dry conditions) was “improved storage stability”.
